We go through two molecules from ChEMBL document CHEMBL1949623, “Camphorsulfonic acid catalysed facile tandem double Friedlander annulation protocol for the synthesis of phenoxy linked bisquinoline derivatives and discovery of antitubercular agents” (Bioorg Med Chem Lett, 2012).

pIC50: −log10 of the molar value.

For the assay, the system named is NIH3T3. In words: Cytotoxicity against mouse NIH/3T3 cells assessed as cell viability after 48 hrs by MTT assay. Conditions: NIH3T3, 48 h. Format: cell-based.

Usually pIC50 stands for the negative decadic logarithm of the IC50, by convention in mol/L. As for `Clc1ccc2nc(-c3ccc(Oc4c(-c5cccc(Br)c5)nc5ccc(Cl)cc5c4-c4ccccc4)cc3)cc(-c3ccccc3)c2c1`, the negative logarithm of the IC50 (pIC50) is 3.05. The result for `Clc1ccc2nc(-c3ccc(Oc4c(-c5ccc(Br)cc5)nc5ccc(Cl)cc5c4-c4ccccc4)cc3)cc(-c3ccccc3)c2c1` reads 3.48.
